A short description of data set [1]: In vitro cytotoxicity was determined. Particulars: read-out: LD50 (the source's name).
In data set [2] the target is Vascular endothelial growth factor receptor 2 (Homo sapiens, UniProt P35968).
The target of data set [3] is Platelet-derived growth factor receptor beta (Homo sapiens, UniProt P09619).
Data set [4] concerns the target Epidermal growth factor receptor (Homo sapiens, UniProt P00533).
The target in data set [5] is Fibroblast growth factor receptor 1 (Homo sapiens, UniProt P11362).
Data set [6] in a line: Solubility in 20 mM buffered solution after shaking for 24 hr at 22 degree celsius at pH 6. Format: physicochemical.
Data set [7] is described as follows: Solubility in 20 mM buffered solution after shaking for 24 hr at 22 degree celsius at pH 2. Format: physicochemical.

Values after ≈ are worked out from the molar mass of the structure shown.

Sequence of Fibroblast growth factor receptor 1 (P11362 whole entry): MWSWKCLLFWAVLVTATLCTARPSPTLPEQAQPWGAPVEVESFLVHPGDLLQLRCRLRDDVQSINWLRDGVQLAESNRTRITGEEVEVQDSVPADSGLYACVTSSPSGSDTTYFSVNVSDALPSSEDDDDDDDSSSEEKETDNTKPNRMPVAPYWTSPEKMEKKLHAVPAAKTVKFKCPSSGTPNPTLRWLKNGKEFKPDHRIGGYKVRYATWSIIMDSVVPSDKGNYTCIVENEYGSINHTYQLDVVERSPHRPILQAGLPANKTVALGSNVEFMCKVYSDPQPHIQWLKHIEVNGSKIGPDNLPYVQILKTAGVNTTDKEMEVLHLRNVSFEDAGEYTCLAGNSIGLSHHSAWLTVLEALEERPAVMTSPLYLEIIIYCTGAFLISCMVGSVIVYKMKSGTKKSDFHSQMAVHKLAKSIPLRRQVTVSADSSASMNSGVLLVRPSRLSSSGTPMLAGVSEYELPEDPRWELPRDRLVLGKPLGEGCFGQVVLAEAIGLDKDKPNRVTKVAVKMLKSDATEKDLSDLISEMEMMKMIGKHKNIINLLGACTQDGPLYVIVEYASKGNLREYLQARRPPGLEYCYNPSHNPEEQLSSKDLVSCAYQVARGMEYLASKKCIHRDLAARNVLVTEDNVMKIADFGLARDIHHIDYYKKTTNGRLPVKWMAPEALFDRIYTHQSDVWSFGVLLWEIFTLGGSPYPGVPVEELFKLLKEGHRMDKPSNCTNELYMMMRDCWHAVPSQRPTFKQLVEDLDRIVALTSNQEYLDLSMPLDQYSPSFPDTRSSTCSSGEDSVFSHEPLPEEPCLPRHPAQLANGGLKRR
Sequence of Platelet-derived growth factor receptor beta (P09619 whole entry): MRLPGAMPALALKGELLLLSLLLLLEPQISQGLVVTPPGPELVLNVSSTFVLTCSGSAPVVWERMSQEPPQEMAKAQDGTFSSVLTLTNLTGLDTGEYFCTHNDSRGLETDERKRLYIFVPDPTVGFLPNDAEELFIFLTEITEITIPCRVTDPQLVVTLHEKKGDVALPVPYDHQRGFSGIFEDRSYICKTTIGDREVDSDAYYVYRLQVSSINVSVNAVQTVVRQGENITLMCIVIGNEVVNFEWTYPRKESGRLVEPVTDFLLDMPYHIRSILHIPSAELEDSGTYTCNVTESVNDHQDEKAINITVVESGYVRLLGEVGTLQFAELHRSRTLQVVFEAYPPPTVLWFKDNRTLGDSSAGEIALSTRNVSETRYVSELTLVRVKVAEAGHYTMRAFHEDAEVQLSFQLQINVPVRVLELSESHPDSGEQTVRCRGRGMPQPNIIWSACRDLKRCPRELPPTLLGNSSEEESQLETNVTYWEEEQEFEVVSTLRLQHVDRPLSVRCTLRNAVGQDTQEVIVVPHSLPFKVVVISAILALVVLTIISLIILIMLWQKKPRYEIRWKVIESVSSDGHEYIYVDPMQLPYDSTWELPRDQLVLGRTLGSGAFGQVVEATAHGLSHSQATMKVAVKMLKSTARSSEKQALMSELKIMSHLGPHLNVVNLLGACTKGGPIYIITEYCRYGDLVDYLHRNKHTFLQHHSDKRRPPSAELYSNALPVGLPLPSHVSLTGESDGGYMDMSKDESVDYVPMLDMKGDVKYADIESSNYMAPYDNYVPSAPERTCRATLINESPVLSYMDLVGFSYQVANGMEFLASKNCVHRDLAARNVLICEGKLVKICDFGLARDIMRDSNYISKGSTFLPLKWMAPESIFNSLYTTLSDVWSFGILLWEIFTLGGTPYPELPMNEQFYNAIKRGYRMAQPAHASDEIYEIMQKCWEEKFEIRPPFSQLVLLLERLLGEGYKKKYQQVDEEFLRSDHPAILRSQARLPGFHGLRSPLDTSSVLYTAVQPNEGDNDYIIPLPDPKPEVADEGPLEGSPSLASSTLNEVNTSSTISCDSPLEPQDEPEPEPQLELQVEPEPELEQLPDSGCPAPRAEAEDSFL
Sequence of Epidermal growth factor receptor (P00533 whole entry): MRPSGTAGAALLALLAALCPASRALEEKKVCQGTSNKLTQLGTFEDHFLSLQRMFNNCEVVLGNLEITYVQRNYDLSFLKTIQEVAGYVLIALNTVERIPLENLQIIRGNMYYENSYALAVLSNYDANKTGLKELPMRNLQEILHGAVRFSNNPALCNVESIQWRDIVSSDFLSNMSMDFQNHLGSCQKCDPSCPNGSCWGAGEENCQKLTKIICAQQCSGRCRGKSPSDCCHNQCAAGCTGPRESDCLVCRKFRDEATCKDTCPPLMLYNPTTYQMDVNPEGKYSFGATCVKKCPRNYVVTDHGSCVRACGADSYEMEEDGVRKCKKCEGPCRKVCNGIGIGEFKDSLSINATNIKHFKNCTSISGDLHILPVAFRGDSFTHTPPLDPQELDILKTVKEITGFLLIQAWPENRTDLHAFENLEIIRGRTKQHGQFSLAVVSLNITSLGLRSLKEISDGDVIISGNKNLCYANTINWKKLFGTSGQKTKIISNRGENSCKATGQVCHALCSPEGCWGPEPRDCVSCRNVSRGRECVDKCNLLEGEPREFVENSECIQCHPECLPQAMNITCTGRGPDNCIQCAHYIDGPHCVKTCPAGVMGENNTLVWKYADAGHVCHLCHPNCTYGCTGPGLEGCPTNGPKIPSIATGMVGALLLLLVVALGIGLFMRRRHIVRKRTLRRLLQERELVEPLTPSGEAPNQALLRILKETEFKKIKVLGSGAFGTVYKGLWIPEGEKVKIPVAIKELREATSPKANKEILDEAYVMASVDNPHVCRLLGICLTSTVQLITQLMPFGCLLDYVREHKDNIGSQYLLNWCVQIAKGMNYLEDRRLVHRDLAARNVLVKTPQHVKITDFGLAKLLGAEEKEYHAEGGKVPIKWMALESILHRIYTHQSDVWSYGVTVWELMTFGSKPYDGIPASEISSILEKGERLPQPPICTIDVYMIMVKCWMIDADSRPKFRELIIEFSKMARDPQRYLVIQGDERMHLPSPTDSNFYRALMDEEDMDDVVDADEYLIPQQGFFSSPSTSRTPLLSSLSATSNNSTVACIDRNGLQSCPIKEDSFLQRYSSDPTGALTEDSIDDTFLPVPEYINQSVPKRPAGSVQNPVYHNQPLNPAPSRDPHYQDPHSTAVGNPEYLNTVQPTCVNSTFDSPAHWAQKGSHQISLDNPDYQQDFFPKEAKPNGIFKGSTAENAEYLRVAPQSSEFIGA
Sequence of Vascular endothelial growth factor receptor 2 (P35968 whole entry): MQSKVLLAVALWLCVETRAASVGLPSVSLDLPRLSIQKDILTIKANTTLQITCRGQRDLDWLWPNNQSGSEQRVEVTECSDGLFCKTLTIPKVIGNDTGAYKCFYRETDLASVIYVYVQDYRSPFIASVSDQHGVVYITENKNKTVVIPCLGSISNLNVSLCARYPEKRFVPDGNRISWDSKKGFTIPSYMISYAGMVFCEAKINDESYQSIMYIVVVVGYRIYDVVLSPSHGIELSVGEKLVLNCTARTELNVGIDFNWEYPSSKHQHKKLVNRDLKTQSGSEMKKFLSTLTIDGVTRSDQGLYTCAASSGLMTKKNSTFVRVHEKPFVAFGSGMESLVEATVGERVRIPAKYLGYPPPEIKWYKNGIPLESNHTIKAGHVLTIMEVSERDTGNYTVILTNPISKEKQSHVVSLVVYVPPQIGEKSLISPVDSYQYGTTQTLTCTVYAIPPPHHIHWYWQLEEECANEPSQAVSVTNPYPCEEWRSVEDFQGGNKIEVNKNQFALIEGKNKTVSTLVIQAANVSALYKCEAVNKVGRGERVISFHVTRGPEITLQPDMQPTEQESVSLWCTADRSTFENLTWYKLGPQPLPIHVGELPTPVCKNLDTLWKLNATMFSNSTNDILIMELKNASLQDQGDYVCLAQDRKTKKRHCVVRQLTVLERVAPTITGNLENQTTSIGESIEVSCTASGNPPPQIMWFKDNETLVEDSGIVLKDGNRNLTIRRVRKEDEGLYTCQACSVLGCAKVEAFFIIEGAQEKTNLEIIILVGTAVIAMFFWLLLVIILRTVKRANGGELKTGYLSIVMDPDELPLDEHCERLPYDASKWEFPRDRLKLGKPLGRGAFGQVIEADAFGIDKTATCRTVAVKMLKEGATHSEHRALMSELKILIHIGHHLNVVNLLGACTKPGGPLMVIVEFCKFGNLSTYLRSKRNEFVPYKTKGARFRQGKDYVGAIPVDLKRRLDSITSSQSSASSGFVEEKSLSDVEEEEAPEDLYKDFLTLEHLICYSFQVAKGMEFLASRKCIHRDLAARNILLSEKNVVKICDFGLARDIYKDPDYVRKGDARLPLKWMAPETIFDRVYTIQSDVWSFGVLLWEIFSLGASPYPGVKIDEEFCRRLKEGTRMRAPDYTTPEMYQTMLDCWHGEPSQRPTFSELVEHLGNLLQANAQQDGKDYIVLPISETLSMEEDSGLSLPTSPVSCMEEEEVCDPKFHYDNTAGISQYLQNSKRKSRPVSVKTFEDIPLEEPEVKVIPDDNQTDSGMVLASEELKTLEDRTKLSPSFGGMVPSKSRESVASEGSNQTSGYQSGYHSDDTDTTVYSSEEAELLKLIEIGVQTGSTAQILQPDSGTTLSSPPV

As for `Cc1[nH]c(/C=C2\C(=O)Nc3ccccc32)c(C)c1CCCN1CCN(C)CC1`, the CC50 in data set [1] was greater than 50 µM. For the same compound, the half-maximal inhibitory concentration (IC50) was 0.3 µM in data set [2], 0.06 µM in data set [3], greater than 20 µM in data set [4] and 4.2 µM in data set [5].
In the case of `CCN(CC)CCNC(=O)c1c(C)[nH]c(/C=C2\C(=O)Nc3ccc(Br)cc32)c1C`, in data set [1], the CC50 came out at 16.3 µM. Also, the values for the solubility (thermodynamic) at 24 h in data set [6] and in data set [7] were 101 µg/mL (≈ 220 µM) and 1300 µg/mL (≈ 2830 µM), respectively. For the same compound, the IC50 in data set [2] turned out to be 0.032 µM; in data set [3] it was 0.005 µM; in data set [4], 10 µM.
As for `Cc1[nH]c(/C=C2\C(=O)Nc3ccc(F)cc32)c(C)c1C(=O)NCCN1CCCC1` [TOCERANIB], the CC50 in data set [1] came to 49 µM. Moreover, the thermodynamic solubility at 24 h in data set [6] worked out at 9 µg/mL (≈ 22.7 µM); in data set [7] it was 3320 µg/mL (≈ 8370 µM). Moreover, the half-maximal inhibitory concentration (IC50) in data set [2] was 0.06 µM; in data set [3], 0.001 µM; in data set [4], greater than 20 µM; in data set [5], 3.9 µM.
With `Cc1[nH]c(/C=C2\C(=O)Nc3ccc(F)cc32)c(C)c1C(=O)NCc1ccncc1`, in data set [1], the CC50 is greater than 50 µM. Moreover, the IC50 is less than 0.16 µM in data set [2], 0.001 µM in data set [3], greater than 20 µM in data set [4] and 3.1 µM in data set [5]. This compound yielded a solubility (thermodynamic) at 24 h in data set [7] of 486 µg/mL (≈ 1240 µM).
Turning to `Cc1[nH]c(/C=C2\C(=O)Nc3ccc(F)cc32)c(C)c1C(=O)NCCN(C)C`, the CC50 in data set [1] amounted to 48.5 µM. In addition, the thermodynamic solubility at 24 h was 75 µg/mL (≈ 202 µM) in data set [6] and 3010 µg/mL (≈ 8130 µM) in data set [7]. For the same compound, the IC50 in data set [2] is 0.08 µM; in data set [3], 0.0005 µM; in data set [4] it was greater than 20 µM; in data set [5], 1.6 µM.
In the case of `Cc1[nH]c(/C=C2\C(=O)Nc3ccc(F)cc32)c(C)c1C(=O)NCC1CCN(C)CC1`, in data set [1], the CC50 amounted to 38 µM. For the same compound, the thermodynamic solubility at 24 h in data set [6] and in data set [7] was greater than 250 µg/mL throughout. Further, the values for the IC50 in data set [2], in data set [3] and in data set [5] were 0.025 µM, 0.003 µM and 0.2 µM, respectively.
In the case of `Cc1[nH]c(/C=C2\C(=O)Nc3ccc(F)cc32)c(C)c1C(=O)NCCn1cncn1`, the CC50 in data set [1] was greater than 50 µM. Also, the solubility (thermodynamic) at 24 h in data set [6] is 6 µg/mL (≈ 15.2 µM); in data set [7], 2 µg/mL (≈ 5.07 µM). Besides, the IC50 in data set [2] was 0.085 µM; in data set [3], 0.01 µM; in data set [4], greater than 20 µM; in data set [5], 17.1 µM.
On to `Cc1cc(C)c(/C=C2\C(=O)Nc3ccccc32)[nH]1` [SEMAXANIB], for which the CC50 in data set [1] is greater than 50 µM. For the same compound, the solubility (thermodynamic) at 24 h in data set [6] and in data set [7] was less than 1 µg/mL throughout.
In the case of `CCN(CC)CCNC(=O)c1c(C)[nH]c(/C=C2\C(=O)Nc3ccc(Cl)cc32)c1C` [SU-11652], in data set [1], the CC50 is 15.6 µM. The thermodynamic solubility at 24 h was found to be 186 µg/mL (≈ 448 µM) in data set [6] and 3260 µg/mL (≈ 7850 µM) in data set [7]. The half-maximal inhibitory concentration (IC50) in data set [2] was 0.027 µM; in data set [3] it was 0.003 µM; in data set [4], greater than 20 µM; in data set [5] it was 0.17 µM.
`CCN(CC)CCNC(=O)c1c(C)[nH]c(/C=C2\C(=O)Nc3ccc(F)cc32)c1C` [SUNITINIB]: the CC50 in data set [1] worked out at 48.9 µM. The thermodynamic solubility at 24 h in data set [6] turned out to be 364 µg/mL (≈ 913 µM); in data set [7], 2580 µg/mL (≈ 6480 µM).
For the compound `CCN(CC)CCNC(=O)c1c(C)[nH]c(/C=C2\C(=O)Nc3ccccc32)c1C`, in data set [1], the CC50 is greater than 50 µM. Besides, the thermodynamic solubility at 24 h in data set [6] is 511 µg/mL (≈ 1340 µM); in data set [7], 3020 µg/mL (≈ 7940 µM). Also, the half-maximal inhibitory concentration (IC50) in data set [2] is 0.05 µM; in data set [3] it was 0.017 µM; in data set [4], greater than 20 µM; in data set [5], 0.88 µM.
For the compound `Cc1[nH]c(/C=C2\C(=O)Nc3ccc(F)cc32)c(C)c1C(=O)NCCN1CCOCC1`, in data set [1], the CC50 is greater than 50 µM. Moreover, the solubility (thermodynamic) at 24 h was 0.3 µg/mL (≈ 0.727 µM) in data set [6] and 2940 µg/mL (≈ 7140 µM) in data set [7]. For the same compound, the IC50 in data set [2] is 0.09 µM; in data set [3] it was 0.002 µM; in data set [4] it was greater than 20 µM; in data set [5], 2.6 µM.
Consider `Cc1[nH]c(/C=C2\C(=O)Nc3ccccc32)c(C)c1CCC(=O)O` [ORANTINIB], for which the CC50 in data set [1] was greater than 50 µM. Moreover, the solubility (thermodynamic) at 24 h in data set [7] was less than 5 µg/mL.

As usually defined, the IC50 is the point on the concentration scale where inhibition reaches its midpoint. Usually thermodynamic solubility stands for solubility found after equilibrating the solid with the medium.

(Values after ChEMBL document CHEMBL1136732, “Discovery of 5-[5-fluoro-2-oxo-1,2- dihydroindol-(3Z)-ylidenemethyl]-2,4- dimethyl-1H-pyrrole-3-carboxylic acid (2-diethylaminoethyl)amide, a novel tyrosine kinase inhibitor targeting vascular endothelial and platelet-derived growth factor receptor tyrosine kinase” (J Med Chem, 2003).)
